Experiments:
[1] = tested on: CMV promoter activity in transformed (adenovirus) cells; experiment: CMV promoter assay (gene transcription and translation; cytotoxicity in transformed cells); format: cell-based; conditions: for cytotoxicity ranking in CMV promoter assay: Table 2 / FIG. 18
Source text: (§1) FIG. 18 illustrates data regarding proliferative activity of various inventive compounds for inducting CMV promoter activity. The CMV promoter assay measures gene transcription and translation activity wherein any active compounds will have cytotoxic activity to inhibit cellular protein synthesis machinery in transformed (adenovirus) cells.
as §1, with “This example” for “FIG. 18”

[2] = tested on: mast cell degranulation; experiment: Serotonin release assay (inhibition of mast cell degranulation); format: cell-based; conditions: for RELEASE-SPONT: average corrected for spontaneous release; for AVERAGE % RELEASE: average of duplicates; for % INHIBITION (serotonin release): Table 3
Source text: A serotonin release assay is utilized to study the utility of the inventive compounds for treatment of asthma and allergy. […] This assay measures mast cell degranulation, which is an early phase reaction to allergen challenge. Mast cells grown in tissue culture are first loaded with ^3 H serotonin, which is incorporated into the granules in the cells. The mast cells are sensitized with antigen specific monoclonal IgE, and then triggered to degranulate with the specific antigen (dinitorphenolbound to BSA (DNP)). When the cells degranulate, ^3 H Serotonin is released into the medium, and can be measured directly. The ability of the inventive compounds to inhibit the degranulation response is determined by the decrease in ^3 H Serotonin released in the presence of drug and is represented as % INHIBITION.
Specifically, the serotonin release assay seeds 2×10^5 cells in 0.5 ml medium in duplicate for spontaneous release, IgE+DNP, IgE+DNP+EtOH (vehicle control), and inventive compounds. […] The cells are incubated for 18 hours at 37° C. in 5% CO2, washed twice with 0.5 ml Isotonic Buffer (25 mM disodium PIPES pH 7.1,100 mM NaCl, 5 mM KCl, 5 mM glucose, 0.4 mM MgCl2, 1mM CaCl2, 0.1% BSA), and sterile filtered. 250 μl Isotonic Buffer is added per well and the plates are equilibrated in an incubator for about 10 min. Drug is added and cells are activated with 40 ng/ml DNP-BSA (1 mg/ml Diluted 1:200 in Isotonic Buffer) for 45 minutes using 2 μl/250 μl. Spontaneous release is determined in incubated cells with 250 μl Isotonic Buffer for 45 minutes and the reaction is stopped by removing supernatant and centrifuging at ~4000 rpm in microfuge for 15 seconds to remove any detached cells. Released radiolableled serotonin is counted. To determine amount of ^3 H-serotonin incorporated into the cells, (a) remove Isotonic Buffer and lyse cells by adding 250 μl 1% Triton-X100 in PBS, (b) add to 5 ml scintillation fluid, (c) wash 2× with Triton/PBS, and (d) add washes to scintillation tube. Percent serotonin release is calculated by dividing the amount of released serotonin by the sum of incorporated plus released serotonin and correcting for spontaneous released serotonin. Compound inhibition is calculated by dividing the percent serotonin release in the presence of a compound by the percent serotonin release in the absence of the compound.
This assay is described above and provides an in vitro model for an allergy and asthma therapeutic product.

Compound	IC50 [1] [µM]	RELEASE-SPONT ([2]; 50 μM, Table 4) [%]	AVERAGE % RELEASE ([2]; 50 μM, Table 4) [%]	inhibition at 50 µM ([2]; Mast cell, 50 μM, Table 4) [%]	activity in serotonin release assay ([2]; 50 μM)	cytotoxicity ranking in CMV promoter assay [1]	RELEASE-SPONT ([2]; 25 uM, Table 4) [%]	AVERAGE % RELEASE ([2]; 25 uM, Table 4) [%]	inhibition at 25 µM ([2]; Mast cell, 25 uM, Table 4) [%]	% INHIBITION (serotonin release) ([2]; 50 μM)
C=CCCCCN1C(=O)c2ccccc2C1=O [CT1101, N(5-hexenyl)phthalimide]	250	2.05	18.60	74.5						
C=CCCCCCCCN1C(=O)c2ccccc2C1=O [CT1102, N(8-nonenyl)phthalimide]	175	2.32	18.88	71.1						
C=CCCCCn1c(=O)n(C)c(=O)c2ccccc21 [CT1203, 1-(5-hexenyl)-3-methylbenzoyleneurea]		-1.12	15.43	114	appear to be quite potent					
C=CCCCCCCCn1c(=O)c2[nH]cnc2n(C)c1=O [CT1405, 1-(8-nonenyl)-3-methylxanthine]	100	5.13	21.69	36						
C=CCCCCn1c(=O)c2[nH]cnc2n(C)c1=O [CT1438, 1-(5-hexenyl)-3-methylxanthine]	> 500									
C=CCn1c(=O)c2c(ncn2C)n(C)c1=O [CT1531, 1-(2-propenyl)-3,7-dimethylxanthine]	50	6.99	23.55	12.8						
C=CCCCCCCCn1c(=O)c2c(ncn2C)n(C)c1=O [CT1550, 1-(8-nonenyl)-3,7-dimethylxanthine]	75	6.94	23.50	13.4						
C=CCCCn1c(=O)c2c(ncn2C)n(C)c1=O [CT1575, 1-(4-pentenyl)-3,7-dimethylxanthine]	> 500	4.33	20.89	46	the two most potent compounds in this group					
C/C=C/CCCn1c(=O)c2c(ncn2C)n(C)c1=O [CT1581, 1-(trans-4-Hexenyl)-3,7-dimethylxanthine]	> 500	4.31	20.87	46.3						
CC(C)=CCC[C@@H](C)CCn1c(=O)c2c(ncn2C)n(C)c1=O [CT1596R, 1-(3-(R)-methyl-7-methyloct-6-enyl)-3,7-dimethylxanthine]	> 500	6.59	23.14	17.9						
CC(C)=CCC[C@H](C)CCn1c(=O)c2c(ncn2C)n(C)c1=O [CT1596S, 1-(3-(S)-methyl-7-methyloct-6-enyl)-3,7-dimethylxanthine]	40	3.15	19.71	60.7		the most cytotoxic compound tested				
C=CCCCCCCCN1C(=O)CCCC1=O [CT1604, N-(8-nonenyl)glutarimide]	100	0.41	16.96	94.9	appear to be quite potent		4.85	21.41	39.5	
CC/C=C\CCCCCN1C(=O)CCCC1=O [CT1607, N-(6-cis-nonenyl)glutarimide]		3.82	20.38	52.3	appears to decrease the activity					
C=CCCCCCCCCCN1C(=O)CCCC1=O [CT1610, N-(10-undecenyl)glutarimide]		2.27	18.83	71.7						
C=CCCCCN1C(=O)CCN(C)C1=O [CT1812, 3-(5-hexenyl)-1-methyldihydrouracil]	> 100	8.27	24.83	-3.14	just not having much of an effect at 50 μM					no inhibi-
CC/C=C\CCCCCn1c(=O)ccn(C)c1=O [CT1814, 3-(6-cis-nonenyl)1-methyluracil]	100	5.94	22.50	25.9	appears to decrease the activity					

Compound	IC50 [1] [µM]	RELEASE-SPONT ([2]; 50 μM, Table 4) [%]	AVERAGE % RELEASE ([2]; 50 μM, Table 4) [%]	inhibition at 50 µM ([2]; Mast cell, 50 μM, Table 4) [%]	activity in serotonin release assay ([2]; 50 μM)	cytotoxicity ranking in CMV promoter assay [1]	RELEASE-SPONT ([2]; 25 uM, Table 4) [%]	AVERAGE % RELEASE ([2]; 25 uM, Table 4) [%]	inhibition at 25 µM ([2]; Mast cell, 25 uM, Table 4) [%]	% INHIBITION (serotonin release) ([2]; 50 μM)
C=CCCCCCCCn1c(=O)ccn(C)c1=O [CT1817, 3-(8-nonenyl)1-methyluracil]	250	3.57	20.12	55.5						
C=CCCCCCCCCCN1C(=O)CCN(C)C1=O [CT1819, 3-(10-undecenyl)-1-methyldihydrouracil]		9.42	25.98	-17.5	just not having much of an effect at 50 μM					no inhibi-
C=CCCCCCCCCCn1c(=O)ccn(C)c1=O [CT1823, 3-(10-undecenyl)1-methyluracil]		4.72	21.28	41.1						
C=CCCCCn1c(=O)c(C)cn(C)c1=O [CT1905, 3-(5-hexenyl)-1-methylthymine]	> 500	4.94	21.49	38.5						
CC/C=C\CCCCCn1c(=O)c(C)cn(C)c1=O [CT1916, 3-(6-cis-nonenyl)-1-methylthymine]	250	6.02	22.58	24.9	appears to decrease the activity					
C=CCCCCCCCn1c(=O)c(C)cn(C)c1=O [CT1917, 3-(8-nonenyl)-1-methylthymine]	75	3.75	20.31	53.2						
C=CCCCCCCCCCn1c(=O)c(C)cn(C)c1=O [CT1931, 3-(10-undecenyl)-1-methylthymine]		2.23	18.78	72.2						
C=CCCn1c(=O)c2c(ncn2C)n(C)c1=O [CT2503, 1-(3-butenyl)-3,7-dimethylxanthine]	> 500	4.87	21.43	39.2						
C=CC(O)CCCCCn1c(=O)c2c(ncn2C)n(C)c1=O (centres unmarked) [CT2508, 1-(6-hydroxy-7-octenyl)-3,7-dimethylxanthine]	> 500	2.89	19.44	64						
C=CCCCCCCCCCCn1c(=O)c2c(ncn2C)n(C)c1=O [CT2516, 1-(11-dodecenyl)-3,7-dimethylxanthine]		5.57	22.12	30.6						
CCCCCCCCC=CCCCCCCCCn1c(=O)c2c(ncn2C)n(C)c1=O [CT2539, 1-(9-octadecenyl)-3,7-dimethylxanthine]	> 100	3.13	19.69	61						
CC(C)=CCCC(C)=CCCC(C)=CCn1c(=O)c2c(ncn2C)n(C)c1=O [CT2544, 1-(Farnesyl)-3,7-dimethylxanthine]	20	-1.11	15.44	114		the most cytotoxic compound tested				
CC(C)=CCC/C(C)=C/Cn1c(=O)c2c(ncn2C)n(C)c1=O [CT2545, 1-(Geranyl)-3,7-dimethylxanthine]	75	2.49	19.05	68.9						
C=CCCCCCCCCCCCn1c(=O)c2c(ncn2C)n(C)c1=O [CT2555, 1-(12-tridecenyl)-3,7-dimethylxanthine]		5.72	21.68	36.1						
CC/C=C\CCCCCCn1c(=O)c2c(ncn2C)n(C)c1=O [CT2560, 1-(7-cis-decenyl)-3,7-dimethylxanthine]		2.96	19.51	63.1	appears to increase the activity					

Reference: patent US5521315A, “Olefin substituted long chain compounds” (priority 1993, dated 1996)
